Measured values published in patent US8574563B2 (Bristol-Myers Squibb Company, priority 2006, dated 2013).

Test system: HCV 1b-377-neo replicon cells
Assay: HCV replicon assay, HCV 1b-377-neo replicon cells (1b FRET)
Type: cell-based, Hepatitis C virus genotype 1b
Conditions: Hepatitis C virus, HCV 1b-377-neo replicon cells; HCV 1b genotype; read-out: EC50 range against HCV 1b (Table 2, Range)
Method in brief: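 Compounds were tested in genotype 1b subgenomic replicon cells carrying a neomycin marker, alongside a matched replicon line with an NS5A Y2065H substitution that confers resistance to a reference NS5A inhibitor.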

SMILES	EC50 [nM]
CCOC(=O)N[C@@H](C)C(=O)N1CCC[C@H]1c1ncc(-c2ccc(-c3ccc(-c4cnc([C@@H]5CCCN5C(=O)[C@@H](c5ccccc5)N(CC)CC)[nH]4)cc3)cc2)[nH]1 [Example M31, ethyl ((1S)-2-((2S)-2-(5-(4′-(2-((2S)-1-((2R)-2-(diethylamino)-2-phenylacetyl)-2-pyrrolidinyl)-1H-imidazol-5-yl)-4-biphenylyl)-1H-imidazol-2-yl)-1-pyrrolidinyl)-1-methyl-2-oxoethyl)carbamate]	1 to 99
COC(=O)N[C@@H](Cc1cn(C)cn1)C(=O)N1CCC[C@H]1c1ncc(-c2ccc(-c3ccc(-c4cnc([C@@H]5CCCN5C(=O)[C@@H](NC(=O)OC)[C@@H](C)OC)[nH]4)cc3)cc2)[nH]1 [cj-43, methyl ((1S)-2-((2S)-2-(5-(4′-(2-((2S)-1-((2S,3R)-3-methoxy-2-((methoxycarbonyl)amino)butanoyl)-2-pyrrolidinyl)-1H-imidazol-5-yl)-4-biphenylyl)-1H-imidazol-2-yl)-1-pyrrolidinyl)-1-((1-methyl-1H-imidazol-4-yl)methyl)-2-oxoethyl)carbamate]	0.001 to 0.999
COC(=O)N[C@@H](C(=O)N1CC2(CC2)C[C@H]1c1nc(-c2ccc(-c3ccc(-c4c[nH]c([C@@H]5CC6(CC6)CN5C(=O)[C@H](NC(=O)OC)c5ccccc5)n4)cc3)cc2)c[nH]1)c1ccccc1 [Example M150, dimethyl (4,4′-biphenyldiylbis(1H-imidazole-4,2-diyl(6S)-5-azaspiro[2.4]heptane-6,5-diyl((1R)-2-oxo-1-phenyl-2,1-ethanediyl)))biscarbamate]	0.001 to 0.999
COC(=O)NC(C(=O)N1CCC[C@H]1c1ncc(-c2ccc(-c3ccc(-c4cnc([C@@H]5CCCN5C(=O)[C@@H](NC(=O)OC)C(C)C)[nH]4)cc3)cc2F)[nH]1)[C@@H](C)OC (stereo in doubt) [Example D42, methyl ((1S,2R)-1-(((2S)-2-(5-(3-fluoro-4′-(2-((2S)-1-(N-(methoxycarbonyl)-L-valyl)-2-pyrrolidinyl)-1H-imidazol-5-yl)-4-biphenylyl)-1H-imidazol-2-yl)-1-pyrrolidinyl)carbonyl)-2-methoxypropyl) carbamate]	0.001 to 0.999
COC(=O)N[C@@H](C)C(=O)N1CCC[C@H]1c1ncc(-c2ccc(-c3ccc(-c4cnc([C@@H]5CCCN5C(=O)[C@H](O)c5ccccc5)[nH]4)cc3)cc2)[nH]1 [Example M98, methyl ((1S)-2-((2S)-2-(5-(4′-(2-((2S)-1-((2R)-2-hydroxy-2-phenylacetyl)-2-pyrrolidinyl)-1H-imidazol-5-yl)-4-biphenylyl)-1H-imidazol-2-yl)-1-pyrrolidinyl)-1-methyl-2-oxoethyl)carbamate]	1 to 99
CC(=O)N[C@@H](C(=O)N1CCC[C@H]1c1ncc(-c2ccc(-c3ccc(-c4cnc([C@@H]5CCCN5C(=O)[C@H](NC(C)=O)C(C)C)[nH]4)cc3)cc2)[nH]1)C(C)C [Example 27, N-((1R)-1-(((2S)-2-(5-(4′-(2-((2S)-1-((2R)-2-acetamido-3-methylbutanoyl)-2-pyrrolidinyl)-1H-imidazol-5-yl)-4-biphenylyl)-1H-imidazol-2-yl)-1-pyrrolidinyl)carbonyl)-2-methylpropyl)acetamide]	1 to 99
CO[C@@H](C(=O)N1CCC[C@H]1c1ncc(-c2ccc(-c3ccc(-c4cnc([C@@H]5CCCN5C(=O)[C@@H](c5ccccc5Cl)N(C)C)[nH]4)cc3)cc2)[nH]1)c1ccccc1 [Example 107-37, (1R)-1-(2-chlorophenyl)-2-((2S)-2-(5-(4′-(2-((2S)-1-((2R)-2-methoxy-2-phenylacetyl)-2-pyrrolidinyl)-1H-imidazol-5-yl)-4-biphenylyl)-1H-imidazol-2-yl)-1-pyrrolidinyl)-N,N-dimethyl-2-oxoethanamine]	0.001 to 0.999
O=C([C@@H]1CCCO1)N1CCC[C@H]1c1ncc(-c2ccc(-c3ccc(-c4cnc([C@@H]5CCCN5C(=O)[C@@H](c5ccccc5)N5CCCC5)[nH]4)cc3)cc2)[nH]1 [Example 95, 2-((2S)-1-((2R)-2-phenyl-2-(1-pyrrolidinyl)acetyl)-2-pyrrolidinyl)-5-(4′-(2-((2S)-1-((2S)-tetrahydro-2-furanylcarbonyl)-2-pyrrolidinyl)-1H-imidazol-5-yl)-4-biphenylyl)-1H-imidazole]	0.001 to 0.999
COC(=O)N[C@@H](C)C(=O)N1CCC[C@H]1c1ncc(-c2ccc(-c3ccc(-c4cnc([C@@H]5CCCN5C(=O)c5ncco5)[nH]4)cc3)cc2)[nH]1 [Example M92, methyl ((1S)-1-methyl-2-((S)-2-(5-(4′-(2-((2S)-1-(1,3-oxazol-2-ylcarbonyl)-2-pyrrolidinyl)-1H-imidazol-5-yl)-4-biphenylyl)-1H-imidazol-2-yl)-1-pyrrolidinyl)-2-oxoethyl)carbamate]	1000 to 10000
COC(=O)N[C@@H](C(=O)N1CCC[C@H]1c1ncc(-c2ccc(-c3ccc(-c4cnc([C@@H]5CCCN5C(=O)C(C)(C)c5ccc(Cl)cc5)[nH]4)cc3)cc2)[nH]1)c1ccccc1 [Example 84-79, methyl ((1R)-2-((2S)-2-(5-(4′-(2-((2S)-1-(2-(4-chlorophenyl)-2-methylpropanoyl)-2-pyrrolidinyl)-1H-imidazol-5-yl)-4-biphenylyl)-1H-imidazol-2-yl)-1-pyrrolidinyl)-2-oxo-1-phenylethyl)carbamate]	0.001 to 0.999
CCOC(=O)N[C@H](C)C(=O)N1CCC[C@H]1c1ncc(-c2ccc(-c3ccc(-c4cnc([C@@H]5CCCN5C(=O)[C@@H](C)NC(=O)OCC)[nH]4)cc3)cc2)[nH]1 [Example M4, ethyl ((1R)-2-((2S)-2-(5-(4′-(2-((2S)-1-(N-(ethoxycarbonyl)-D-alanyl)-2-pyrrolidinyl)-1H-imidazol-5-yl)-4-biphenylyl)-1H-imidazol-2-yl)-1-pyrrolidinyl)-1-methyl-2-oxoethyl)carbamate]	100 to 999
CN(C)[C@@H](C(=O)N1CCC[C@H]1c1ncc(-c2ccc(-c3ccc(-c4cnc([C@@H]5CCCN5C(=O)[C@@H]5CCCO5)[nH]4)cc3)cc2)[nH]1)c1ccccc1 [Example 87, (1R)-N,N-dimethyl-2-oxo-1-phenyl-2-((2S)-2-(5-(4′-(2-((2S)-1-((2S)-tetrahydro-2-furanylcarbonyl)-2-pyrrolidinyl)-1H-imidazol-5-yl)-4-biphenylyl)-1H-imidazol-2-yl)-1-pyrrolidinyl)ethanamine]	0.001 to 0.999
CC(=O)N[C@@H](C(=O)N1CCC[C@H]1c1ncc(-c2ccc(-c3ccc(-c4cnc([C@@H]5CCCN5C(=O)[C@H]5CCCO5)[nH]4)cc3)cc2)[nH]1)c1ccccc1 [Example 118, N-((1R)-2-oxo-1-phenyl-2-((2S)-2-(5-(4′-(2-((2S)-1-((2R)-tetrahydro-2-furanylcarbonyl)-2-pyrrolidinyl)-1H-imidazol-5-yl)-4-biphenylyl)-1H-imidazol-2-yl)-1-pyrrolidinyl)ethyl) acetamide]	0.001 to 0.999
COC(=O)N[C@H](CC(=O)N1CCC[C@H]1c1ncc(-c2ccc(-c3ccc(-c4cnc([C@@H]5CCCN5C(=O)C[C@@H](NC(=O)OC)C(C)C)[nH]4)cc3)cc2)[nH]1)C(C)C [cj-127, dimethyl (4,4′-biphenyldiylbis(1H-imidazole-5,2-diyl(2S)-2,1-pyrrolidinediyl((3R)-4-methyl-1-oxo-1,3-pentanediyl)))biscarbamate]	1 to 99
COC(=O)N[C@H](C(=O)N1CCC[C@H]1c1ncc(-c2ccc(-c3ccc(-c4cnc([C@@H]5CCCN5C(=O)[C@@H](N)C(C)(C)O)[nH]4)cc3)cc2)[nH]1)C(C)C [Example M104, methyl ((1S)-1-(((2S)-2-(5-(4′-(2-((2S)-1-(3-hydroxy-L-valyl)-2-pyrrolidinyl)-1H-imidazol-5-yl)-4-biphenylyl)-1H-imidazol-2-yl)-1-pyrrolidinyl)carbonyl)-2-methylpropyl)carbamate]	100 to 999
CCC(=O)N1CCC[C@H]1c1ncc(-c2ccc(-c3ccc(-c4cnc([C@@H]5CCCN5C(=O)[C@H](NC(=O)OC)c5ccccc5)[nH]4)cc3)cc2)[nH]1 [Example 32, methyl ((1R)-2-oxo-1-phenyl-2-((2S)-2-(5-(4′-(2-((2S)-1-propionyl-2-pyrrolidinyl)-1H-imidazol-5-yl)-4-biphenylyl)-1H-imidazol-2-yl)-1-pyrrolidinyl)ethyl)carbamate]	1 to 99
COC(=O)N[C@H](C(=O)N1CCC[C@H]1c1nc(-c2ccc(-c3ccc(-c4[nH]c([C@@H]5CCCN5C(=O)[C@@H](NC(=O)OC)C(C)C)nc4C)cc3)cc2)c(C)[nH]1)C(C)C [Example E5l, methyl ((1S)-1-(((2S)-2-(4-(4′-(2-((2S)-1-((2S)-2-((methoxycarbonyl)amino)-3-methylbutanoyl)-2-pyrrolidinyl)-4-methyl-1H-imidazol-5-yl)-4-biphenylyl)-5-methyl-1H-imidazol-2-yl)-1-pyrrolidinyl)carbonyl)-2-methylpropyl)carbamate]	0.001 to 0.999
COC(=O)N[C@@H](C(=O)N1CCC[C@H]1c1ncc(-c2ccc(-c3ccc(-c4cnc([C@@H]5CCCN5C(=O)C(c5cccc6ccccc56)N(C)C)[nH]4)cc3)cc2)[nH]1)c1ccccc1 (stereo partly drawn) [Example 84-51, methyl ((1R)-2-((2S)-2-(5-(4′-(2-((2S)-1-((dimethylamino)(1-naphthyl)acetyl)-2-pyrrolidinyl)-1H-imidazol-5-yl)-4-biphenylyl)-1H-imidazol-2-yl)-1-pyrrolidinyl)-2-oxo-1-phenylethyl)carbamate]	0.001 to 0.999
O=C(Cc1ccccc1CN1CCOCC1)N1CCC[C@H]1c1ncc(-c2ccc(-c3ccc(-c4cnc([C@@H]5CCCN5C(=O)[C@@H](c5ccccc5)N5CCCCC5)[nH]4)cc3)cc2)[nH]1 [Example 107-26, 4-(2-(2-oxo-2-((2S)-2-(5-(4′-(2-((2S)-1-((2R)-2-phenyl-2-(1-piperidinyl)acetyl)-2-pyrrolidinyl)-1H-imidazol-5-yl)-4-biphenylyl)-1H-imidazol-2-yl)-1-pyrrolidinyl)ethyl)benzyl) morpholine]	0.001 to 0.999
